Source: US9120861B2, “Functional enhancement of antimicrobials” (Mississippi State University, priority 2008, dated 2015)
“Also recorded” adds a separate entry of the source.

How the values were obtained:
[1] = thin layer chromatography (TLC) lipid II binding assay; conditions: iodine stain; FIG. 8 and FIG. 9
From the text: In FIG. 8 and FIG. 9, a thin layer chromatography (TLC) lipid II binding assay for native and modified nisin A and gallidermin is shown, respectively. The method of the present invention enables direct visualization for the loss of lipid II binding. […] Nisin is not as stable as gallidermin at higher temperatures.

[2] = system: M. luteus; test: bioassay plate overlaid with M. luteus (bacterial clearing); type: cell-based; conditions: 5 μL spotted onto a plate overlaid with M. luteus; FIG. 6
Description: We performed a 2-mercaptoethanol addition to mutacin 1140 at pH 7.3 in Tris buffer at room temperature for 2 hours. FIG. 5 is a RP-HPLC chromatogram of the native mutacin 1140, designated by the black line with triangles, overlaid on the chromatogram of the 2-mercaptoethanol modified mutacin 1140 (B-Me mutacin), which is designated by the grey line with circles. The modification changes the retention time of the native molecule to the left, a slightly more hydrophilic solvent (more water relative to acetonitrile). The large peak in the flow through was determined, by smell, to be 2-mercaptoethanol. The two small sharp peaks following the flow peak, which both have an absorbance in the 280 nm range, appears to be contaminants in the 2-mercaptoethanol solution. They also appeared in Nisin A modified by the same 2-mercaptoethanol labeling procedure. Nisin has no aromatic residues to account for this absorbance. […] In the future, these 2-mercatoethanol peaks will be removed by washing the sample with ice cold ether, which will extract the thiol compound leaving our peptide in solution. We spotted 5 μL of the native mutacin and the B-Me mutacin onto a plate overlaid with M. luteus. […] We also performed the same reaction with ethanethiol following the same procedure outline above. […]

Row | Substance | lipid II binding (retention of lipid II at the origin of the TLC plate) [1] | bactericidal activity (bacterial clearing, inhibition of bacterial growth) [2]
1 | ethanethiol labeled nisin: nisin following addition of the organosulfur compound ethanethiol | maintains lipid II binding activity; also recorded: diminished capacity to retain lipid II at the origin | 
2 | gallidermin | retain lipid II at the origin | 
3 | mutacin 1140 |  | bacterial clearing
4 | nisin A | retain lipid II at the origin | 
